Results reported in US20230085307A1, “PYRIDAZINONE COMPOUND AND HERBICIDE” (NISSAN CHEMICAL CORPORATION, priority 2019, published 2023).

Tests used:
[1] = tested on: Italian ryegrass; test: Test Example 5: herbicidal effect by foliage application, plastic box (Table 20, symbol K); assay type: in vivo, Italian ryegrass (Lolium multiflorum); settings: foliage application, 320 g/ha, three weeks after application
Procedure, shortened: (§1)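 Sow seeds spot-wise in sterilized diluvial soil; cover with ~1.5 cm soil. Grow 14 days in greenhouse, 25° C. to 30° C. Spray foliage with emulsion diluted to predetermined amount. Rate effect after 3 weeks.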

[2] = tested on: barnyard grass; test: Test Example 5: herbicidal effect by foliage application, plastic box (Table 20, symbol H); assay type: in vivo, barnyard grass (Echinochloa crus-galli); settings: foliage application, 320 g/ha, three weeks after application
Procedure, shortened: as §1

[3] = tested on: southern crabgrass; test: Test Example 4: herbicidal effect by soil treatment (Table 19, symbol F); assay type: in vivo, southern crabgrass (Digitaria ciliaris); settings: amount of applied herbicide 320 g/ha
Procedure, shortened: (§2)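 Applied as a water-diluted emulsion, the compound was sprayed onto soil covering newly sown seeds. Evaluation came three weeks after application, in a greenhouse held at 25° C. to 30° C.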

[4] = tested on: redroot pigweed; test: Test Example 4: herbicidal effect by soil treatment (Table 19, symbol N); assay type: in vivo, redroot pigweed (Amaranthus retroflexus); settings: amount of applied herbicide 320 g/ha
Procedure, shortened: as §2

[5] = tested on: barnyard grass; test: Test Example 3: herbicidal effect by foliage application, Wagner pot (Table 18, symbol H); assay type: in vivo, barnyard grass (Echinochloa crus-galli); settings: 320 g/ha
Procedure, shortened: (§3)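 Plants were sown in alluvial soil held under 0.1–0.5 cm standing water and grown 14 days in a greenhouse at 25–30 °C. An emulsifiable formulation, water-diluted to the set dose, was then sprayed onto the foliage, and effects were scored three weeks later using previously defined criteria.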

[6] = tested on: late watergrass; test: Test Example 2: herbicidal activity, application during weed generation under submerged conditions (Table 17, symbol A); assay type: in vivo, late watergrass (Echinochloa oryzicola); settings: AAH 320 g/ha; application during weed generation, submerged conditions
Procedure, shortened: (§4)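 Herbicide emulsion, diluted with water to the chosen amount, is applied onto 4 cm floodwater over alluvial soil where the weeds were co-sown and raised at 25–30° C. Application timing: 1–2 leaves. Assessment: three weeks afterwards.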

[7] = tested on: oval-leafed pondweed; test: Test Example 1: herbicidal activity, application before weed generation under submerged conditions (Table 16, symbol C); assay type: in vivo, oval-leafed pondweed (Monochoria vaginalis); settings: amount of applied herbicide 320 g/ha
Procedure, shortened: (§5)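 Emulsion formulation, water-diluted to set dose, was put onto the flooded surface (4 cm depth, alluvial soil) the same day weeds were sown and 2.5-leaf rice transplanted. After 3 weeks at 25-30 °C under glass, each species was rated 0 (≤5% kill) to 5 (≥90% kill).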

[8] = tested on: blackgrass; test: Test Example 5: herbicidal effect by foliage application, plastic box (Table 20, symbol J); assay type: in vivo, blackgrass (Alopecurus myosuroides); settings: foliage application, 320 g/ha, three weeks after application
Procedure, shortened: as §1

[9] = tested on: chickweed; test: Test Example 5: herbicidal effect by foliage application, plastic box (Table 20, symbol P); assay type: in vivo, common chickweed (Stellaria media); settings: foliage application, 320 g/ha, three weeks after application
Procedure, shortened: as §1

[10] = tested on: southern crabgrass; test: Test Example 5: herbicidal effect by foliage application, plastic box (Table 20, symbol F); assay type: in vivo, southern crabgrass (Digitaria ciliaris); settings: foliage application, 320 g/ha, three weeks after application
Procedure, shortened: as §1

[11] = tested on: velvetleaf; test: Test Example 4: herbicidal effect by soil treatment (Table 19, symbol M); assay type: in vivo, velvetleaf (Abutilon theophrasti); settings: amount of applied herbicide 320 g/ha
Procedure, shortened: as §2

[12] = tested on: Japanese bulrush; test: Test Example 1: herbicidal activity, application before weed generation under submerged conditions (Table 16, symbol B); assay type: in vivo, Japanese bulrush (Schoenoplectus juncoides); settings: amount of applied herbicide 320 g/ha
Procedure, shortened: as §5

[13] = tested on: blackgrass; test: Test Example 4: herbicidal effect by soil treatment (Table 19, symbol J); assay type: in vivo, blackgrass (Alopecurus myosuroides); settings: amount of applied herbicide 320 g/ha
Procedure, shortened: as §2

[14] = tested on: rice flat sedge; test: Test Example 3: herbicidal effect by foliage application, Wagner pot (Table 18, symbol E); assay type: in vivo, rice flat sedge (Cyperus iria); settings: 320 g/ha
Procedure, shortened: as §3

[15] = tested on: persian speedwell; test: Test Example 4: herbicidal effect by soil treatment (Table 19, symbol R); assay type: in vivo, Persian speedwell (Veronica persica); settings: amount of applied herbicide 320 g/ha
Procedure, shortened: as §2

[16] = tested on: oval-leafed pondweed; test: Test Example 2: herbicidal activity, application during weed generation under submerged conditions (Table 17, symbol C); assay type: in vivo, oval-leafed pondweed (Monochoria vaginalis); settings: AAH 320 g/ha; application during weed generation, submerged conditions
Procedure, shortened: as §4

Structure (SMILES): COc1ccccc1-c1sc2cc(OC(C)C)ccc2c1-c1c(O)c(C)nn(C)c1=O [3-101]
- K: Italian ryegrass, herbicidal effect grade [1]: 5 (Herbicidal rate of 90% or more (almost completely withered))
- H: barnyard grass, herbicidal effect grade [2]: 5 (Herbicidal rate of 90% or more (almost completely withered))
- F: southern crabgrass, herbicidal effect grade [3]: 2 (Herbicidal rate of 20% or more and less than 40%)
- N: redroot pigweed, herbicidal effect grade [4]: 4 (Herbicidal rate of 70% or more and less than 90%)
- herbicidal effect on barnyard grass (H) [5]: 5 (Herbicidal rate of 90% or more (almost completely withered))
- herbicidal effect rating, A: late watergrass [6]: 3 (Herbicidal rate of 40% or more and less than 70%)
- Herbicidal effect, C: oval-leafed pondweed [7]: 5 (Herbicidal rate of 90% or more (almost completely withered))
- J: blackgrass, herbicidal effect grade [8]: 5 (Herbicidal rate of 90% or more (almost completely withered))
- P: chickweed, herbicidal effect grade [9]: 5 (Herbicidal rate of 90% or more (almost completely withered))
- F: southern crabgrass, herbicidal effect grade [10]: 5 (Herbicidal rate of 90% or more (almost completely withered))
- M: velvetleaf, herbicidal effect grade [11]: 3 (Herbicidal rate of 40% or more and less than 70%)
- Herbicidal effect, B: Japanese bulrush [12]: 5 (Herbicidal rate of 90% or more (almost completely withered))
- J: blackgrass, herbicidal effect grade [13]: 4 (Herbicidal rate of 70% or more and less than 90%)
- herbicidal effect on rice flat sedge (E) [14]: 5 (Herbicidal rate of 90% or more (almost completely withered))
- R: persian speedwell, herbicidal effect grade [15]: 4 (Herbicidal rate of 70% or more and less than 90%)
- herbicidal effect rating, C: oval-leafed pondweed [16]: 2 (Herbicidal rate of 20% or more and less than 40%)

Structure (SMILES): CCCCOc1ccc2c(-c3c(O)c(C)nn(C)c3=O)c(-c3ccccc3OC)sc2c1 [3-105]
- K: Italian ryegrass, herbicidal effect grade [1]: 5 (Herbicidal rate of 90% or more (almost completely withered))
- H: barnyard grass, herbicidal effect grade [2]: 4 (Herbicidal rate of 70% or more and less than 90%)
- F: southern crabgrass, herbicidal effect grade [3]: 0 (Herbicidal rate of 5% or less (almost no effect))
- N: redroot pigweed, herbicidal effect grade [4]: 4 (Herbicidal rate of 70% or more and less than 90%)
- herbicidal effect on barnyard grass (H) [5]: 5 (Herbicidal rate of 90% or more (almost completely withered))
- herbicidal effect rating, A: late watergrass [6]: 3 (Herbicidal rate of 40% or more and less than 70%)
- Herbicidal effect, C: oval-leafed pondweed [7]: 5 (Herbicidal rate of 90% or more (almost completely withered))
- J: blackgrass, herbicidal effect grade [8]: 5 (Herbicidal rate of 90% or more (almost completely withered))
- P: chickweed, herbicidal effect grade [9]: 5 (Herbicidal rate of 90% or more (almost completely withered))
- F: southern crabgrass, herbicidal effect grade [10]: 5 (Herbicidal rate of 90% or more (almost completely withered))
- M: velvetleaf, herbicidal effect grade [11]: 0 (Herbicidal rate of 5% or less (almost no effect))
- Herbicidal effect, B: Japanese bulrush [12]: 5 (Herbicidal rate of 90% or more (almost completely withered))
- J: blackgrass, herbicidal effect grade [13]: 0 (Herbicidal rate of 5% or less (almost no effect))
- herbicidal effect on rice flat sedge (E) [14]: 4 (Herbicidal rate of 70% or more and less than 90%)
- R: persian speedwell, herbicidal effect grade [15]: 5 (Herbicidal rate of 90% or more (almost completely withered))
- herbicidal effect rating, C: oval-leafed pondweed [16]: 4 (Herbicidal rate of 70% or more and less than 90%)

Structure (SMILES): COc1ccccc1-c1sc2cc(OCC(C)C)ccc2c1-c1c(O)c(C)nn(C)c1=O [3-107]
- K: Italian ryegrass, herbicidal effect grade [1]: 5 (Herbicidal rate of 90% or more (almost completely withered))
- H: barnyard grass, herbicidal effect grade [2]: 3 (Herbicidal rate of 40% or more and less than 70%)
- F: southern crabgrass, herbicidal effect grade [3]: 3 (Herbicidal rate of 40% or more and less than 70%)
- N: redroot pigweed, herbicidal effect grade [4]: 5 (Herbicidal rate of 90% or more (almost completely withered))
- herbicidal effect on barnyard grass (H) [5]: 4 (Herbicidal rate of 70% or more and less than 90%)
- herbicidal effect rating, A: late watergrass [6]: 3 (Herbicidal rate of 40% or more and less than 70%)
- Herbicidal effect, C: oval-leafed pondweed [7]: 5 (Herbicidal rate of 90% or more (almost completely withered))
- J: blackgrass, herbicidal effect grade [8]: 4 (Herbicidal rate of 70% or more and less than 90%)
- P: chickweed, herbicidal effect grade [9]: 5 (Herbicidal rate of 90% or more (almost completely withered))
- F: southern crabgrass, herbicidal effect grade [10]: 5 (Herbicidal rate of 90% or more (almost completely withered))
- M: velvetleaf, herbicidal effect grade [11]: 1 (Herbicidal rate of 5% or more and less than 20%)
- Herbicidal effect, B: Japanese bulrush [12]: 5 (Herbicidal rate of 90% or more (almost completely withered))
- J: blackgrass, herbicidal effect grade [13]: 0 (Herbicidal rate of 5% or less (almost no effect))
- herbicidal effect on rice flat sedge (E) [14]: 4 (Herbicidal rate of 70% or more and less than 90%)
- R: persian speedwell, herbicidal effect grade [15]: 4 (Herbicidal rate of 70% or more and less than 90%)
- herbicidal effect rating, C: oval-leafed pondweed [16]: 5 (Herbicidal rate of 90% or more (almost completely withered))

Structure (SMILES): CCCCCOc1ccc2c(-c3c(O)c(C)nn(C)c3=O)c(-c3ccccc3OC)sc2c1 [3-108]
- K: Italian ryegrass, herbicidal effect grade [1]: 0 (Herbicidal rate of 5% or less (almost no effect))
- H: barnyard grass, herbicidal effect grade [2]: 0 (Herbicidal rate of 5% or less (almost no effect))
- F: southern crabgrass, herbicidal effect grade [3]: 0 (Herbicidal rate of 5% or less (almost no effect))
- N: redroot pigweed, herbicidal effect grade [4]: 4 (Herbicidal rate of 70% or more and less than 90%)
- herbicidal effect on barnyard grass (H) [5]: 3 (Herbicidal rate of 40% or more and less than 70%)
- herbicidal effect rating, A: late watergrass [6]: 2 (Herbicidal rate of 20% or more and less than 40%)
- Herbicidal effect, C: oval-leafed pondweed [7]: 5 (Herbicidal rate of 90% or more (almost completely withered))
- J: blackgrass, herbicidal effect grade [8]: 0 (Herbicidal rate of 5% or less (almost no effect))
- P: chickweed, herbicidal effect grade [9]: 3 (Herbicidal rate of 40% or more and less than 70%)
- F: southern crabgrass, herbicidal effect grade [10]: 0 (Herbicidal rate of 5% or less (almost no effect))
- M: velvetleaf, herbicidal effect grade [11]: 0 (Herbicidal rate of 5% or less (almost no effect))
- Herbicidal effect, B: Japanese bulrush [12]: 3 (Herbicidal rate of 40% or more and less than 70%)
- J: blackgrass, herbicidal effect grade [13]: 0 (Herbicidal rate of 5% or less (almost no effect))
- herbicidal effect on rice flat sedge (E) [14]: 1 (Herbicidal rate of 5% or more and less than 20%)
- R: persian speedwell, herbicidal effect grade [15]: 0 (Herbicidal rate of 5% or less (almost no effect))
- herbicidal effect rating, C: oval-leafed pondweed [16]: 0 (Herbicidal rate of 5% or less (almost no effect))

Structure (SMILES): COc1ccccc1-c1sc2cc(OC3CCCC3)ccc2c1-c1c(O)c(C)nn(C)c1=O [3-109]
- K: Italian ryegrass, herbicidal effect grade [1]: 4 (Herbicidal rate of 70% or more and less than 90%)
- H: barnyard grass, herbicidal effect grade [2]: 4 (Herbicidal rate of 70% or more and less than 90%)
- F: southern crabgrass, herbicidal effect grade [3]: 2 (Herbicidal rate of 20% or more and less than 40%)
- N: redroot pigweed, herbicidal effect grade [4]: 5 (Herbicidal rate of 90% or more (almost completely withered))
- herbicidal effect on barnyard grass (H) [5]: 3 (Herbicidal rate of 40% or more and less than 70%)
- herbicidal effect rating, A: late watergrass [6]: 0 (Herbicidal rate of 5% or less (almost no effect))
- Herbicidal effect, C: oval-leafed pondweed [7]: 5 (Herbicidal rate of 90% or more (almost completely withered))
- J: blackgrass, herbicidal effect grade [8]: 2 (Herbicidal rate of 20% or more and less than 40%)
- P: chickweed, herbicidal effect grade [9]: 5 (Herbicidal rate of 90% or more (almost completely withered))
- F: southern crabgrass, herbicidal effect grade [10]: 3 (Herbicidal rate of 40% or more and less than 70%)
- M: velvetleaf, herbicidal effect grade [11]: 5 (Herbicidal rate of 90% or more (almost completely withered))
- Herbicidal effect, B: Japanese bulrush [12]: 5 (Herbicidal rate of 90% or more (almost completely withered))
- J: blackgrass, herbicidal effect grade [13]: 0 (Herbicidal rate of 5% or less (almost no effect))
- herbicidal effect on rice flat sedge (E) [14]: 4 (Herbicidal rate of 70% or more and less than 90%)
- R: persian speedwell, herbicidal effect grade [15]: 4 (Herbicidal rate of 70% or more and less than 90%)
- herbicidal effect rating, C: oval-leafed pondweed [16]: 2 (Herbicidal rate of 20% or more and less than 40%)
